The source of these data is US20030074682A1, “Isolation, characterization, and use of a novel teleost potassium channel” (priority 2001, published 2003).

In one data set the test system is zebrafish larvae. The conditions noted are these: for arrest of the atrial and ventricular beat: 1 hour incubation; for induction of 2:1 atrioventricular block (atrium beats twice while the ventricle beats once): wild-type larvae bathed in drug, terfenadine 10 μM, astemizol 1 μM, diphenhydramine 100 μM, haloperidol 2 μM, droperidol 50 μM, thioridazin 10 μM, pimozide 0.5 μM, cisapride 5 μM; for "real" arrhythmia (atrium and ventricle beating very irregularly): bathing 6 hours. Here is the method:
About 50 zebrafish larvae were incubated for 2-7 d at 22-28° C. in petri dishes filled with 30 ml embryo medium.
At the day of the experiment 10 larvae were transferred to small petri dishes filled with 10 ml embryo medium, 0.5 ml MESAB solution (0.2% ethyl-m-aminobenzoate methane-sulfonate+1% Na2HPO4×2H2O, pH 7.2) and 10 μl of the respective drug (or +10 μl of a second drug) added from a 1000-fold stock solution prepared with DMSO, these three components were previously mixed in 50 ml plastic tubes (controls only receive 10 or 20 μl DMSO).
At certain time points the contractility of the heart and blood flow was monitored, and the heart rate was determined by counting the heart beat with the aid of a stereo-microscope.
In order to evaluate if zebrafish is a suitable model organism to study drug-induced QT-prolongation we investigated the effect of known QT-prolonging medicaments on the heart beat rate of zebrafish larvae. Compounds were added to the media in which the larvae were bathed and the heart beat rate was recorded by microscopy.

Data set [1] concerns the target rapidly activating delayed rectifier current K^+ current IKr (Homo sapiens, UniProt Q12809). The conditions noted are these: cited from earlier work.
The next data set deals with ZERG. Description: Antisense ZERG-knockdown: PMO injected into yolk of zebrafish embryos at the 1-4-cell stage, heart function and morphology scored. Type of data set: in vivo. The text has this: In one embodiment, preferred PMOs comprise a sequence complementary to contiguous nucleotides within nucleotides 1-150 of SEQ ID NO:1; an exemplary PMO sequence is presented in SEQ ID NO:3. As further detailed in the Examples, we generated an antisense PMO corresponding to the first 24 nucleotides of the ZERG coding sequence, as presented in SEQ ID NO:3, and injected these into the yolk of zebrafish embryos at the 1-4 cell stage, according to standard protocols. […] Thus, antisense PMOs may be used to knockdown the ZERG protein, and to phenocopy the breakdance mutant, as well as QT-prolonging drug-treated larvae.
24-mer antisense PMOs targeting the 5′ prime region of ZERG (SEQ ID NO:3; start 0-24: GACATGTCCGCGGCGCACGGGCAT) were injected at the 1-4-cell stage into the yolk of zebrafish embryos according to published methods (Nasevicius and Ekker, 2000). The PMO was obtained from AVI Biopharma (Corvallis, Oreg.) and was injected at 3, 6 and 9 ng per embryo, we used 50 embroys per concentration. The experiment was repeated five times. Heart function and morphological anaylsis of larvae were scored one to 5 d later. Controls included the injection of only the injection buffer.

Setting [2] is: cardiac myocytes, electrophysiology.
Where [3] appears, read: 6 ng PMO per embryo, 2 days post-fertilization.

Like-named read-outs stand apart in the source and are kept apart here.

Sequence of rapidly activating delayed rectifier current K^+ current IKr (Q12809 whole entry): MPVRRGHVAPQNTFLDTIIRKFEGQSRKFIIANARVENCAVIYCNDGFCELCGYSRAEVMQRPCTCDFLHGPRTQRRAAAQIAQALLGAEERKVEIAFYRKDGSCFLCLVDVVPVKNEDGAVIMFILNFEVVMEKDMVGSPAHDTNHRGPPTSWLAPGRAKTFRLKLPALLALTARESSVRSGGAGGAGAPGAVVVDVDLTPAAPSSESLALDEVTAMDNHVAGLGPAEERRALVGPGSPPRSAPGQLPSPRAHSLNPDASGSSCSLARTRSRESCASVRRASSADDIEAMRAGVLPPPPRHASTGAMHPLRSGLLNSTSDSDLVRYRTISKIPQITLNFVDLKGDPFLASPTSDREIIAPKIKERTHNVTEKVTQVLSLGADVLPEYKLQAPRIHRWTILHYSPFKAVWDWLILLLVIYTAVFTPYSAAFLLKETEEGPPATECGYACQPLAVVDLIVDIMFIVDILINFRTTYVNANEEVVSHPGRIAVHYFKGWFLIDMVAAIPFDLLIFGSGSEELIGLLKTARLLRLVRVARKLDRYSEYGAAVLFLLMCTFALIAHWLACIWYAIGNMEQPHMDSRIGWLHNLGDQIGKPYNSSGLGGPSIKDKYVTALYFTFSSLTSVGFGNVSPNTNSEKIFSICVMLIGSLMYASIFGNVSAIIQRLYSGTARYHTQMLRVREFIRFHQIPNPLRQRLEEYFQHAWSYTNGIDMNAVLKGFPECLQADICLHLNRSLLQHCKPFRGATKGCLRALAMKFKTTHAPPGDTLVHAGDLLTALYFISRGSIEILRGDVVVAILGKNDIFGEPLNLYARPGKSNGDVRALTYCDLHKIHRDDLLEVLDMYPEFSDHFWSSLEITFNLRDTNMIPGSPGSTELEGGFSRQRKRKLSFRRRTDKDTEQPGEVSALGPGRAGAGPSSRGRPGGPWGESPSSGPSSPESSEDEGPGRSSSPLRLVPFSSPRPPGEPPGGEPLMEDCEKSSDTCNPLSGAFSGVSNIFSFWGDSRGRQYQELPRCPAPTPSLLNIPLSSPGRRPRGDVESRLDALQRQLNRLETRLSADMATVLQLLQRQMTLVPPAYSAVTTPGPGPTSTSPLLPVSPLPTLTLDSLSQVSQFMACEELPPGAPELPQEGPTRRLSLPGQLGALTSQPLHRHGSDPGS

In the case of `O=c1[nH]c2ccccc2n1C1CCN(CCCC(c2ccc(F)cc2)c2ccc(F)cc2)CC1` [pimozide], in the data set with zebrafish larvae (200 nM), the “incubation time until 2:1 heart beat occurred” value was 3 h. Further, in the data set on zebrafish larvae (10 μM), the “arrest of the atrial and ventricular beat” value is “arrest of the atrial and ventricular beat”. For the same compound, the “induction of 2:1 atrioventricular block (atrium beats twice while the ventricle beats once)” value (from here on “induction of 2:1 atrioventricular block”) with zebrafish larvae is “induced a 2:1 atrioventricular block”. Besides, in data set [1], the “block of IKr” value is listed as “block”.
As for `COc1cc(N)c(Cl)cc1C(=O)NC1CCN(CCCOc2ccc(F)cc2)CC1OC` (stereo not shown) [cisapride], in the data set on zebrafish larvae (10 μM), the “"real" arrhythmia (atrium and ventricle beating very irregularly)” value (“"real" arrhythmia” below) is “arrhythmia occurred”. Besides, in the data set with zebrafish larvae (25 μM), the “arrest of the atrial and ventricular beat” value is “arrest of the atrial and ventricular beat”. Further, the “induction of 2:1 atrioventricular block” value with zebrafish larvae was “induced a 2:1 atrioventricular block”. For the same compound, in data set [1] (setting [2]), the “block of IKr” value is on record as “block”.
For the compound `O=C(CCCN1CC=C(n2c(=O)[nH]c3ccccc32)CC1)c1ccc(F)cc1` [droperidol], the “induction of 2:1 atrioventricular block” value in the data set with zebrafish larvae is recorded as “induced a 2:1 atrioventricular block”.
Same read-out and setting: then `CC(C)(C)c1ccc(C(O)CCCN2CCC(C(O)(c3ccccc3)c3ccccc3)CC2)cc1` (stereo not shown) [terfenadine], with “induced a 2:1 atrioventricular block”.
Consider `COc1ccc(CCN2CCC(Nc3nc4ccccc4n3Cc3ccc(F)cc3)CC2)cc1` [astemizole], for which the “incubation time until 2:1 heart beat occurred” value in the data set with zebrafish larvae (100 nM) was determined as 6 h. Further, the “"real" arrhythmia” value in the data set with zebrafish larvae (200 nM) is given as “arrhythmia occurred”. The “induction of 2:1 atrioventricular block” value in the data set with zebrafish larvae is given as “induced a 2:1 atrioventricular block”.
With `CC(C)NCC(O)c1ccc(NS(C)(=O)=O)cc1` (stereo not shown) [sotalol], in data set [1] (setting [2]), the “block of IKr” value is “block”.
`NC1=NCC2c3ccccc3Cc3ccccc3N12` (stereo not shown) [epinastine]: the “effect on heart beat rate” value in the data set with zebrafish larvae (up to 250 μM) is on record as “did not affect heart beat rate”.
On to `CN(C)CCOC(c1ccccc1)c1ccccc1` [diphenhydramine], for which the “induction of 2:1 atrioventricular block” value in the data set with zebrafish larvae is “induced a 2:1 atrioventricular block”.
For `CSc1ccc2c(c1)N(CCC1CCCCN1C)c1ccccc1S2` (stereo not shown) [thioridazine], the “"real" arrhythmia” value in the data set with zebrafish larvae (10 μM) is reported as “arrhythmia occurred”. Also, the “induction of 2:1 atrioventricular block” value in the data set on zebrafish larvae is “induced a 2:1 atrioventricular block”.
As for “PMO: 24-mer antisense PMO targeting the 5′ region of ZERG (SEQ ID NO:3): GACATGTCCGCGGCGCACGGGCAT (antisense GACATGTCCGCGGCGCACGGGCAT; all phosphorodiamidate morpholino (PMO))”, in the data set with ZERG (3 ng PMO per embryo), the larvae appearing wild-type entry is “approximately 5%”, the “larvae showing a slight bradycardia” value is “approximately 81%” and the “larvae showing the 2:1 phenotype” value is listed as “approximately 18%”. Moreover, the “bradycardia and other visible abnormalities” value with ZERG (6 ng PMO per embryo) is “All larvae showed a slight bradycardia and no other visible abnormalities”. In the data set with ZERG (setting [3]), the “embryos showing irregular arrhythmia, atrial beat rate strongly reduced and uncoordinated” value amounted to 28%; the “embryos showing the 2:1 heart beat” value is reported as 67%. Also, the “larvae with a 2:1 heart beat” value in the data set with ZERG (6 ng PMO per embryo, day 3) stood at 10%. Further, in the data set with ZERG (6 ng PMO per embryo, day 5), the “phenotype compared with wildtype” value is given as “all larvae were indistinguishable from wildtype larvae”. Further, in the data set with ZERG (9 ng PMO per embryo), the “day of death after strong necrosis beginning with day 4” value is about 6 days; the heart morphology result is given as “changed to a pattern known for dilative cardiomyopathy”; the “larvae with strongly reduced heart beat rate and contractility, both chambers beating 1:1, circulation strongly reduced or absent” value is recorded as 90%. The “edema and blood accumulation” value in the data set on ZERG (9 ng PMO per embryo, day 2) is “heart edema and blood accumulated on the yolk sac”. Further, the “PMO-injected larvae displaying the 2:1 phenotype” value in the data set on ZERG (injected into yolk at the 1-4 cell stage, dose not given) was “About 90%”.
For the compound `O=C(CCCN1CCC(O)(c2ccc(Cl)cc2)CC1)c1ccc(F)cc1` [haloperidol], the “"real" arrhythmia” value in the data set on zebrafish larvae (10 μM) is on record as “arrhythmia occurred”. The “induction of 2:1 atrioventricular block” value in the data set on zebrafish larvae was “induced a 2:1 atrioventricular block”. Further, the “block of IKr” value in data set [1] is “block”.
